The record followed here is patent US10577383B2, “Macrocyclic inhibitors of myeloperoxidase” (BRISTOL-MYERS SQUIBB COMPANY, priority 2016, dated 2020).

Test [1] concerns the target T1, myeloperoxidase (Homo sapiens (Human), UniProt P05164). The test can be described thus: MPO Chlorination Assay (APF Assay). The test is classed as biochemical. The note with it: MPO chlorination activity, 100 mM KPi (pH 7.4), 120 mM NaCl, ten minute preincubation; potency ranges defined in nM. How it is done: (§1) [formula] where A=minimal Y value (activity level of inhibited sample), B=maximal Y value (activity level of uninhibited sample), C=Log IC50, D=Hill Slope, x=concentration of inhibitor. MPO Chlorination Assay (APF Assay) MPO chlorination activity was measured in 100 mM KPi (pH 7.4) by utilizing the non-fluorescent reagent Aminophenyl fluorescein (APF, Invitrogen Cat. #A36003). APF is cleaved by (—OCl) to yield the fluorescent compound fluorescein. Reactions were carried out in 50 μL total volume by adding a 25 μL mixture of 200 pM myeloperoxidase and 120 mM NaCl to 100 nL inhibitor in 100% DMSO in a 384 well, non-binding surface clear bottom plate (Corning #3655). Enzyme, inhibitor, and chloride were preincubated for ten minutes at room temperature.
After the ten minute preincubation, 25 μL of an APF mixture containing […], 120 mM NaCl and 10 μM H2O2 was added to the plate using the internal dispensing system of a Hammatsu FDSS 6000. Kinetic determinations were carried out immediately on the FDSS 6000 (3 minute kinetic read, 1 read every second, ex: 485 nm, em: 535 nm). IC50 values for inhibitors were calculated by taking the slope of the linear portion of the kinetic measurement (20 seconds to 80-120 secs).
(§2) IC50 values were calculated by determining the slope of the linear portion of the kinetic trace (180-540 secs), and using that calculated slope to determine % inhibition occurring at each concentration of inhibitor using the following equation:
[formula] where A=minimal Y value (activity level of inhibited sample), B=maximal Y value (activity level of uninhibited sample), C=Log IC50, D=Hill Slope, x=concentration of inhibitor. EPX Bromination Assay

Test [2] addresses T1, myeloperoxidase. The test is described as follows: MPO Peroxidation Assay (Amplex Red Assay). Format: biochemical. The note with it: MPO peroxidation activity, 100 mM KPi (pH 7.4), ten minute preincubation; potency ranges defined in nM. As for the experimental part:
MPO Peroxidation Assay (Amplex Red Assay)
MPO peroxidation activity was measured in 100 mM KPi (pH 7.4) by utilizing the non-fluorescent reagent Amplex Red (Invitrogen Cat. #A12222) which can be oxidized to the highly fluorescent resorufin. Amplex Red is oxidized by the peroxidase action of MPO to resorufin. Reactions were carried out in 50 μL total volume by adding a 25 μL mixture of 200 pM myeloperoxidase and 40 nM H2O2 (Sigma #349887) to 100 nL inhibitor in 100% DMSO in a 384 well Perkin Elmer Optiplate. Enzyme and compound were preincubated for ten minutes at room temperature.
After the ten minute preincubation, 25 μL of an Amplex Red mixture containing 200 μM Amplex Red and 10 mM H2O2 was added to the plate. Kinetic determinations were carried out immediately on a Perkin Elmer Envision (15 minute kinetic read, Ex: 535 nm, Em: 590 nm).
as §2, §1

T1 sequence (P05164 49-745): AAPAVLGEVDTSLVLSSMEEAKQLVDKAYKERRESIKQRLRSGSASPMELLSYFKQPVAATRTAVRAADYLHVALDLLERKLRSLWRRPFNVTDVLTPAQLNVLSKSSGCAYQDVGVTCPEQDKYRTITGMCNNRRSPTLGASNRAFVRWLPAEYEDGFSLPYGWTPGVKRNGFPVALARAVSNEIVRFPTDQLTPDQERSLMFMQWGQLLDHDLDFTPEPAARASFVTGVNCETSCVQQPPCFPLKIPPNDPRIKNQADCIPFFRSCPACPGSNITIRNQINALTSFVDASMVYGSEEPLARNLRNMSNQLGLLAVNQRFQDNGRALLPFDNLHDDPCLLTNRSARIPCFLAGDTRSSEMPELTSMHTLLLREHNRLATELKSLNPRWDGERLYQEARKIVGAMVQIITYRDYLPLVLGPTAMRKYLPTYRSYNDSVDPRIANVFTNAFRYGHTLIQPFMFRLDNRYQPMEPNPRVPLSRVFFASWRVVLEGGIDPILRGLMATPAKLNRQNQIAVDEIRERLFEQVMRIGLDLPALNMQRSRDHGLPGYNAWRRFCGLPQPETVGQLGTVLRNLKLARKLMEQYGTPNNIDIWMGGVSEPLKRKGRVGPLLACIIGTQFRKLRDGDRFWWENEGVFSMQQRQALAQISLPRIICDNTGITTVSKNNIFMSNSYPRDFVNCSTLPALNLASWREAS

Regarding `Nc1cc(C2CCNCCc3cccc(c3)Oc3cccc(c3)Cn3cc2cn3)c2nn[nH]c2n1` (single isomer, unassigned) [Example 4, 7-{18-oxa-3,4,10-triazatetracyclo[17.3.1.1^3,^6.1^13,^1^7]pentacosa-1(23),4,6(25),13,15,17(24),19,21-octaen-7-yl}-3H-[1,2,3]triazolo[4,5-b]pyridin-5-amine], the IC50 in test [1] and in test [2] was 101 to 999 nM throughout.

On to `Nc1cc(C2CCNCC3(CC3)COc3cccc(c3)Cn3cc2cn3)c2nn[nH]c2n1` (single isomer, unassigned) [Example 21, 7-{14′-Oxa-3′,4′,10′-triazaspiro[cyclopropane-1,12′-tricyclo[13.3.1.1^3,^6]icosane]-1′(19′),4′,6′(20′),15′,17′-pentaen-7′-yl}-3H-[1,2,3]triazolo[4,5-b]pyridin-5-amine], for which the results for the IC50 in test [1] and in test [2] were 1 to 100 nM and 101 to 999 nM, respectively.

Take `Nc1cc(C2CCNCc3cccc(c3)Oc3cccc(c3)Cn3cc2cn3)c2nn[nH]c2n1` (stereo not shown) [Example 1, 7-{17-oxa-3,4,10-triazatetracyclo[16.3.1.1^3,^6.1^12,^1^6]tetracosa-1(22),4,6(24),12,14,16(23),18,20-octaen-7-yl}-3H-[1,2,3]triazolo[4,5-b]pyridin-5-amine]: the IC50 (usually the concentration needed to halve the response being measured) in test [1] lay in the range of 1 to 100 nM; in test [2], 101 to 999 nM.

Consider `Nc1cc(C2CCNCCc3cccc(c3)Oc3cccc(c3)Cn3cc2cn3)c2nn[nH]c2n1` (stereo not shown) [Example 3, 7-{18-oxa-3,4,10-triazatetracyclo[17.3.1.1^3,^6.1^13,^1^7]pentacosa-1(23),4,6(25),13,15,17(24),19,21-octaen-7-yl}-3H-[1,2,3]triazolo[4,5-b]pyridin-5-amine], for which the IC50 in test [1] and in test [2] was 1 to 100 nM each time.

On to `CN1CCC(c2cc(N)nc3[nH]nnc23)c2cnn(c2)Cc2cccc(c2)Oc2cccc(c2)C1` (stereo not shown) [Example 6, 7-{10-methyl-17-oxa-3,4,10-triazatetracyclo[16.3.1.1^3,^6.1^12,^1^6]tetracosa-1(22),4,6(24),12,14,16(23),18,20-octaen-7-yl}-3H-[1,2,3]triazolo[4,5-b]pyridin-5-amine], for which the IC50 in test [1] lay in the range of 101 to 999 nM; in test [2] it was 1000 to 10000 nM.

Consider `C[C@H]1Cc2cccc(c2)Oc2cccc(c2)Cn2cc(cn2)C(c2cc(N)nc3[nH]nnc23)CCN1` (stereo partly drawn) [Example 7, 7-[(11S)-11-Methyl-18-oxa-3,4,10-triazatetracyclo[17.3.1.1^3,^6.1^13,^1^7]pentacosa-1(23),4,6(25),13,15,17(24),19,21-octaen-7-yl]-3H-[1,2,3]triazolo[4,5-b]pyridin-5-amine], for which the half-inhibitory concentration (IC50) in test [1] and in test [2] was 1 to 100 nM each time.

As to `C[C@@H]1Cc2cccc(c2)Oc2cccc(c2)Cn2cc(cn2)C(c2cc(N)nc3[nH]nnc23)CCN1` (stereo partly drawn) [Example 8, 7-[(11R)-11-Methyl-18-oxa-3,4,10-triazatetracyclo[17.3.1.1^3,^6.1^13,^1^7]pentacosa-1(23),4,6(25),13,15,17(24),19,21-octaen-7-yl]-3H-[1,2,3]triazolo[4,5-b]pyridin-5-amine], the IC50 in test [1] lay in the range of 1 to 100 nM; in test [2], 101 to 999 nM.

With `Nc1cc(C2CCNCc3cccc(c3)OCc3cccc(c3)Cn3cc2cn3)c2nn[nH]c2n1` (stereo not shown) [Example 9, 7-{17-Oxa-3,4,10-triazatetracyclo[17.3.1.1^3,^6.1^12,^1^6]pentacosa-1(23),4,6(25),12,14,16(24),19,21-octaen-7-yl}-3H-[1,2,3]triazolo[4,5-b]pyridin-5-amine], the half-maximal inhibitory concentration (IC50) in test [1] and in test [2] was 1 to 100 nM in each case.

Regarding `C[C@H]1Oc2cccc(c2)Cn2cc(cn2)C(c2cc(N)nc3[nH]nnc23)CCNCc2cccc1c2` (stereo partly drawn) [Example 10, 7-[(17R)-17-Methyl-18-oxa-3,4,10-triazatetracyclo[17.3.1.1^3,^6.1^12,^16]pentacosa-1(23),4,6(25),12,14,16(24),19,21-octaen-7-yl]-3H-[1,2,3]triazolo[4,5-b]pyridin-5-amine], the IC50 was 1 to 100 nM in test [1] and 101 to 999 nM in test [2].

Regarding `Nc1cc(C2CCN[C@H](CO)Cc3cccc(c3)Oc3cccc(c3)Cn3cc2cn3)c2nn[nH]c2n1` (stereo partly drawn) [Example 11, [(11S)-7-{5-Amino-3H-[1,2,3]triazolo[4,5-b]pyridin-7-yl}-18-oxa-3,4,10-triazatetracyclo[17.3.1.1^3,^6.1^13,^1^7]pentacosa-1(23),4,6(25),13,15,17(24),19,21-octaen-11-yl]methanol], the IC50 is 1 to 100 nM in test [1] and 101 to 999 nM in test [2].

For the compound `Nc1cc(C2CCNCc3cc(F)cc(c3)OCc3cccc(c3)Cn3cc2cn3)c2nn[nH]c2n1` (stereo not shown) [Example 12, 7-{14-Fluoro-17-oxa-3,4,10-triazatetracyclo[17.3.1.1^3,^6.1^12,^1^6]pentacosa-1(23),4,6(25),12(24),13,15,19,21-octaen-7-yl}-3H-[1,2,3]triazolo[4,5-b]pyridin-5-amine], the IC50 in test [1] and in test [2] was 1 to 100 nM throughout.

Take `COc1ccc2cc1OCc1cccc(c1)Cn1cc(cn1)C(c1cc(N)nc3[nH]nnc13)CCNC2` (stereo not shown) [Example 13, 7-{15-Methoxy-17-oxa-3,4,10-triazatetracyclo[17.3.1.1^3,^6.1^12,^1^6]pentacosa-1(23),4,6(25),12(24),13,15,19,21-octaen-7-yl}-3H-[1,2,3]triazolo[4,5-b]pyridin-5-amine]: the IC50 in test [1] is 101 to 999 nM; in test [2], 1000 to 10000 nM.

Consider `Nc1cc(C2CCNCc3ccc(F)c(c3)OCc3cccc(c3)Cn3cc2cn3)c2nn[nH]c2n1` (stereo not shown) [Example 14, 7-{15-Fluoro-17-oxa-3,4,10-triazatetracyclo[17.3.1.1^3,^6.1^12,^1^6]pentacosa-1(23),4,6(25),12(24),13,15,19,21-octaen-7-yl}-3H-[1,2,3]triazolo[4,5-b]pyridin-5-amine], for which the IC50 in test [1] lay in the range of 1 to 100 nM; in test [2] it was 1000 to 10000 nM.

For `Nc1cc(C2CCNCc3cc(Cl)cc(c3)OCc3cccc(c3)Cn3cc2cn3)c2nn[nH]c2n1` (stereo not shown) [Example 15, 7-{14-Chloro-17-oxa-3,4,10-triazatetracyclo[17.3.1.1^3,^6.1^12,^1^6]pentacosa-1(23),4,6(25),12(24),13,15,19,21-octaen-7-yl}-3H-[1,2,3]triazolo[4,5-b]pyridin-5-amine], the values for the IC50 in test [1] and in test [2] were 1 to 100 nM and 101 to 999 nM, respectively.

For `Nc1cc(C2CCNCCc3cccc(c3)OCc3cccc(c3)Cn3cc2cn3)c2nn[nH]c2n1` (stereo not shown) [Example 16, 7-{18-Oxa-3,4,10-triazatetracyclo[18.3.1.1^3,^6.1^13,^1^7]hexacosa-1(24),4,6(26),13(25),14,16,20,22-octaen-7-yl}-3H-[1,2,3]triazolo[4,5-b]pyridin-5-amine], the IC50 is 1 to 100 nM in test [1] and 101 to 999 nM in test [2].

Turning to `Nc1cc(C2CCNCCCOc3cccc(c3)Cn3cc2cn3)c2nn[nH]c2n1` (stereo not shown) [Example 17, 7-{14-Oxa-3,4,10-triazatricyclo[13.3.1.1^3,^6]icosa-1(19),4,6(20),15,17-pentaen-7-yl}-3H-[1,2,3]triazolo[4,5-b]pyridin-5-amine], the IC50 in test [1] was in the range of 101 to 999 nM; in test [2] it was 1000 to 10000 nM.

For `Nc1cc(C2CCNCC3(CC3)COc3cccc(c3)Cn3cc2cn3)c2nn[nH]c2n1` (stereo not shown) [Example 19, 7-{14′-Oxa-3′,4′,10′-triazaspiro[cyclopropane-1,12′-tricyclo[13.3.1.1^3,^6]icosane]-1′(19′),4′,6′(20′),15′,17′-pentaen-7′-yl}-3H-[1,2,3]triazolo[4,5-b]pyridin-5-amine], the results for the IC50 in test [1] and in test [2] were 1 to 100 nM and 101 to 999 nM, respectively.
